Experimental data taken from ChEMBL document CHEMBL1136169, “Design and synthesis of potent and selective macrocyclic thrombin inhibitors” (Bioorg Med Chem Lett, 2003).
pKi: −log10 of the molar value.

Key:
[1] = species on record: Homo sapiens; assay: Concentration of inhibitor in human plasma required to double the activated partial thromboplastin time; type: functional
[2] = biological target: Tissue-type plasminogen activator (Homo sapiens, UniProt P00750); assay: Inhibitory activity against Tissue plasminogen activator
Tissue-type plasminogen activator, sequence (P00750 whole entry): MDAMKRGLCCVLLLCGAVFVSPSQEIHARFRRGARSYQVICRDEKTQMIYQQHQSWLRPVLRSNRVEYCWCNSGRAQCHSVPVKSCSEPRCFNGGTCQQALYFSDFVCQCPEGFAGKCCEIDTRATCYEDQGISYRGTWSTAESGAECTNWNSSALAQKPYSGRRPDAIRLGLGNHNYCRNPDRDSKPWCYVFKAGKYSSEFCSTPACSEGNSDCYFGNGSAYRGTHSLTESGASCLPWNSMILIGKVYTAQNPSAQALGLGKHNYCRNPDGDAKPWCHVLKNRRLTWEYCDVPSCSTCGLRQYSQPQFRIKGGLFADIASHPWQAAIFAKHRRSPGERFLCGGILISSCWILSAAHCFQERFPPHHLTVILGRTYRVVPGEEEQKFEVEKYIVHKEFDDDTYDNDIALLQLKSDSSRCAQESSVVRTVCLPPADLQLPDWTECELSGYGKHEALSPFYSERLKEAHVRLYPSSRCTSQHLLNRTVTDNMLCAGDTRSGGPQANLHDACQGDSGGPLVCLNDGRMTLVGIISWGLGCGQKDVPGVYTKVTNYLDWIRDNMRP

[3] = biological target: Prothrombin (Homo sapiens, UniProt P00734); assay: Inhibitory activity against thrombin IIa
[4] = biological target: Serine protease 1 (Homo sapiens, UniProt P07477); assay: Inhibitory activity against human trypsin
Serine protease 1, sequence (P07477 whole entry): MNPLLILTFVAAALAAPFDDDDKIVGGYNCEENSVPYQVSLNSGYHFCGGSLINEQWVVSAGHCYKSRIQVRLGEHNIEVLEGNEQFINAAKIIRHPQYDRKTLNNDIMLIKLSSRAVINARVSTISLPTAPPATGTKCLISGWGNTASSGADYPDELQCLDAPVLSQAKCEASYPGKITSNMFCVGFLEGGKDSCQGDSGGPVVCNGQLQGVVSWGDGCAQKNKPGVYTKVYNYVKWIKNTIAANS

pKi [2] | pKi [3] | pKi [4] | SMILES | 2*APTT [1] [µM]
8.22 | 10.22 | 6.96 | O=C1Cn2c(Cl)cnc(c2=O)N[C@@H](Cc2ccccc2)CNC(=O)OC/C=C\COc2ccc(Cl)cc2CN1 | 0.78
 | 8.30 |  | N[C@H](C(=O)N1CCC[C@H]1C(=O)NCc1cc(Cl)ccc1Cl)C1CCCCC1 | 
6.44 | 8.60 | 5.17 | O=C1Cn2c(Cl)cnc(c2=O)N[C@@H](Cc2ccccc2)CNCCCCCOc2ccccc2CN1 | 0.6
5.49 | 8.68 | 5.34 | O=C1Cn2c(Cl)cnc(c2=O)N[C@@H](Cc2ccccc2)CNCCOCCOc2ccccc2CN1 | 0.39
5.37 | 9.40 | 5.30 | O=C1COc2ccc(Cl)cc2CNC(=O)[C@@H]2CCCN2C(=O)[C@@H](C2CCCCC2)NC(=O)CCCN1 | 0.31
5.05 |  | 4.67 | O=C1COc2ccc(Cl)cc2CNC(=O)[C@@H]2CCCN2C(=O)C(C2CCCCC2)NC(=O)CCN1 (some centres undefined) | 0.36
 | 9.51 |  | CCN(CC)C(=O)CN[C@H](C(=O)N1CCC[C@H]1C(=O)NCc1cc(Cl)ccc1Cl)C1CCCCC1 | 
6.19 |  | 5.68 | O=C1Cn2c(Cl)cnc(c2=O)N[C@@H](Cc2ccccc2)CNCCCNCCc2ccccc2CN1 | 0.47
8.22 | 10.30 | 7.10 | O=C1Cn2c(Cl)cnc(c2=O)N[C@@H](Cc2ccccc2)CNCCCCCOc2ccc(Cl)cc2CN1 | 1.22
3.78 | 9.29 | 4.39 | O=C1Cn2c(Cl)cnc(c2=O)N[C@@H](Cc2ccccc2)CNCCCCNCc2ccccc2CN1 | 0.43
5.25 | 8.54 | 5.03 | O=C1COc2ccc(Cl)cc2CNC(=O)[C@@H]2CCCN2C(=O)[C@@H](C2CCCCC2)NC(=O)CN1 | 0.69
5.41 | 8.52 | 4.77 | CN1CCOc2ccccc2CNC(=O)Cn2c(Cl)cnc(c2=O)N[C@@H](Cc2ccccc2)CNC(=O)C1 | 0.5
 | 6.25 |  | O=C1Cn2c(Cl)cnc(c2=O)N[C@@H](Cc2ccccc2)CNCCOc2ccc(Cl)cc2CN1 | 
6.32 | 9.77 | 6.24 | O=C1Cn2c(Cl)cnc(c2=O)N[C@@H](Cc2ccccc2)CNC(=O)OC/C=C/COc2ccc(Cl)cc2CN1 | 0.87
 | 9.89 | 6.62 | O=C1Cn2c(Cl)cnc(c2=O)N[C@@H](Cc2ccccc2)NCCCCCCOc2ccc(Cl)cc2CN1 | 3.17

SMILES | pKi [2] | pKi [3] | pKi [4] | 2*APTT [1] [µM]
O=C1Cn2c(Cl)cnc(c2=O)N[C@@H](Cc2ccccc2)CNC(=O)OCCCCOc2ccc(Cl)cc2CN1 |  | 9.20 | 5.40 | 1.97
O=C1Cn2c(Cl)cnc(c2=O)N[C@@H](Cc2ccccc2)CNCCOCCOc2ccc(Cl)cc2CN1 | 6.82 | 10.30 | 6.96 | 0.56
O=C1Cn2c(Cl)cnc(c2=O)N[C@@H](Cc2ccccc2)CNCCCOc2ccc(Cl)cc2CN1 |  | 7.59 |  | 
CN1CCCCCOc2ccc(Cl)cc2CNC(=O)Cn2c(Cl)cnc(c2=O)N[C@@H](Cc2ccccc2)C1 | 8.52 | 10.70 | 7.40 | 1.89
CCNC(=O)Oc1ccc(Cl)cc1CNC(=O)[C@@H]1CCCN1C(=O)[C@@H](N)C1CCCCC1 |  | 9.13 |  | 
O=C1Cn2c(Cl)cnc(c2=O)N[C@@H](Cc2ccccc2)CNCCCCOc2ccc(Cl)cc2CN1 | 7.70 | 9.70 | 7.05 | 0.74
O=C1COc2ccc(Cl)cc2CNC(=O)[C@@H]2CCCN2C(=O)[C@@H](C2CCCCC2)NC(=O)CCCCN1 | 4.32 | 8.89 | 5.11 | 0.36
